Test results: US10729718B2, “Substances containing AuCs and preparation method and use thereof” (Shenzhen Profound-View Pharma Tech Co., Ltd, priority 2016, dated 2020)

Columns and labels:
[1] = target: T1, Aβ(1-40) (Homo sapiens, UniProt P05067); assay: In vitro Aβ aggregation kinetic experiment (ThT fluorescent labeling method); format: biochemical; conditions: ThT fluorescence, 20 μM Aβ(1-40), 37° C., up to 20.0 ppm (L-NIBC 1.0 and 10.0 ppm)
T1 construct: Freeze-dried powder of amyloid polypeptide Aβ(1-40) (Invitrogen Corp.); purchased Invitrogen Corp
T1 sequence (P05067 672-711 limits assumed): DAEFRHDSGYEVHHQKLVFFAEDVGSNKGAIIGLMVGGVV
Excerpt: Thioflavin T (abbreviation: ThT) is a dye specifically for dyeing amyloid fibers. […] When it encounters amyloid polypeptides or proteins with a fiber structure, it will immediately couple with the amyloid polypeptides or proteins and its fluorescence intensity will increase exponentially. Just because of this property, ThT is widely used as a marker to monitor amyloidosis of peptides or proteins. The fibrosis process of Aβ(1-40) is also a nucleation-controlled polymerization process. Therefore, the growth curve of Aβ(1-40) fiber measured by ThT fluorescent labeling method is mainly divided into three stages: Initial stage, growth stage and platform stage. […] All the Aβ(1-40) PBS solutions for the experiments were prepared freshly. […] The samples were incubated continuously in a 96-well plate at 37° C. by ThT fluorescent labeling method, and monitored the fluorescence intensity by microplate reader once every 10 minutes.

[2] = target: T1, Aβ(1-40); assay: AFM topography of Aβ(1-40) after coincubation for 48 h; format: biochemical; conditions: coincubated with Aβ(1-40) for 48 h
Protocol: Panel A is the AFM topography after Aβ(1-40) was incubated alone for 48 h. Panel B is an AFM topography after Aβ(1-40) was coincubated with L-NIBC for 48 h. Panel C and panel D are AFM topographies after Aβ(1-40) was coincubated with gold nanoparticles with an average particle size of 6.0 nm and 3.6 nm respectively (modified with L-NIBC) for 48 h. And panel E is an AFM topography after Aβ(1-40) was coincubated with AuCs in an average particle size of 1.8 nm (modified with L-NIBC) for 48 h.

[3] = test system: SH-SY5Y neuroblastoma cell line; assay: Aβ induced AD cell model, cell viability by CCK-8 method; format: cell-based; conditions: 0.01-20 ppm (L-NIBC 20 ppm); 20 μM Aβ(1-40), 24 h
Protocol: The cell viability was used as an index in the experiment of this embodiment. […] The cells used in the experiment were SH-SY5Y neuroblastoma cell line. […] Specific method:
1) SH-sy5y cells (cells had passed to the sixth generation) in logarithmic growth phase were diluted with complete medium (MEM+10% FBS+1% penicillin-streptomycin) to get a cell suspension in a density of 5×10^4/mL. The suspension was inoculated 200 μL per well into a 96-well plate, and cultivated in an incubator with 5% CO2 at 37° C. A sample was added when the cells attached to the wells.
2) 100 μL ligand-modified AuCs samples or ligand-modified gold nanoparticles samples, at different particle sizes and at concentrations of 0.04 ppm, 0.4 ppm, 4 ppm, 20 ppm, 40 ppm and 80 ppm respectively, which were dissolved by maintenance medium (MEM+2% FBS+1% penicillin-streptomycin) were added into the incubated suspension obtained from Step 1). After incubating in the incubator for 2 h, 100 μL 80 μM Aβ(1-40) was added, and then the mixture was incubated in the incubator for 24 h. […] The culture medium was removed, maintenance medium (MEM) containing 10% CCK-8 at 100 μL/well was added and was incubated for 4 h, the absorbance of each well at 450 nm was measured to reflect the prevention and treatment effects of ligand-modified AuCs on Aβ(1-40) lesion.

[4] = target: T2, α-syn (Homo sapiens, UniProt P37840); assay: In vitro α-syn aggregation kinetics (ThT fluorescent labeling method); format: biochemical; conditions: ligand only (L-NIBC 1.0 and 10.0 ppm), 35 μM α-syn, 37° C.
T2 construct: purchased Bachem Corp
Excerpt: Thioflavin T (abbreviation: ThT) is a dye for dyeing amyloid fibers specifically. […] When it encounters amyloid polypeptide or protein with a fiber structure, it will immediately couple with the amyloid polypeptides or proteins and its fluorescence intensity will increase exponentially. For this reason, ThT is widely used as markers to monitor amyloidosis of peptides or proteins. This embodiment utilizes ThT fluorescent labeling method to monitor the kinetics process of fibrosis aggregation of α-syn with the existence of AuCs. The specific experiment method was as follows:
Pretreatment of α-syn monomers: Freeze-dried powder (Bachem Corp.) of α-syn was dissolved in HFIP to obtain a 1 g/L α-syn solution. The solution was incubated at room temperature for 2-4 h after sealing, then blowed to dry HFIP by high-purity nitrogen in a fume hood. […]
Sample preparation and detection: Ligand-modified AuCs in different concentrations listed in Table 1 were added to 35 μM α-syn PBS solutions respectively, and incubated continuously in a 96-well plate at 37° C., by ThT fluorescent labeling method, and were monitored the fluorescence intensity by microplate reader once every 10 minutes. The kinetic process of α-syn aggregation was characterized through the change of fluorescence intensity of ThT. […]

[5] = test system: SH-sy5y cells; assay: MPP+ induced PD cell (SH-sy5y) model, Experiment 2, CCK-8; format: cell-based; conditions: 1 mM MPP^+ and ligand 20 ppm, 24 h; model control 65.1±4.0%

`CC(C)C(=O)N[C@@H](CS)C(=O)O` [L-NIBC, N-isobutyryl-L-cysteine] was tested, and the “effect on Aβ(1-40) amyloidosis / aggregation kinetics” value [1] was “no obvious effect”, the “formation of Aβ(1-40) fibers (AFM topography)” value [2] was “no obvious effect” and the “effect on cell viability of Aβ induced AD cell model” value [3] was “did not improve cell viability”. The “effect on kinetics of α-syn aggregation” value [4] was “did not have an obvious effect” and the “cell viability of the ligand control group” value [5] was 61.5±3.8%.
